# Reference: patent US7604993B2, “Combined regulation of neural cell production” (Stem Cell Therapeutics Inc., priority 2001, dated 2009)
# Entries after “also recorded” stand apart in the source; their conditions may differ. No end group written: not given here.
# Legend:
# [1] = test system: migrating neuronal progenitor cells; assay: Brain anatomical analysis (Cresyl Violet, Doublecortin) in focal ischemic injury (stroke) model; assay type: in vivo; details: rats with focal ischemic injury, end of week 6
# Text: The animals for the stroke study received unilateral devascularization of the sensorimotor cortex. Using Isoflurane anesthesia, the skin was incised and retracted and the overlying fascia were removed from the skull. A skull opening was made at the following coordinates, taking care not to damage the dura: AP +4.0 to −2.0; L 1.5 to 4 (the parasagittal ridge; Kolb et al., 1997). The dura was cut and retracted from the skull opening. A cotton swab soaked in sterile saline was gently rubbed across the exposed pia and the vessels were removed. A hole was then drilled in the contralateral hemisphere to provide an opening for the cannulae attached to the osmotic minipump at AP −0.5; L 1.5. An osmotic minipump was placed under the skin between the shoulder blades and a tube connected under the skin to the cannulae, which was attached to the skull with fast-drying cement. Once hemostasis had been achieved the scalp was sutured closed with 5-O sterile suture. The animals were given a single injection of Banamine (an analgesic) and returned to their home cage. Sham animals received only anesthesia, the bone opening, and the skin was incised and sutured. […] The animals then received various test factors, and the effects of these factors on the forelimb inhibition test and brain anatomy were assessed. […]
# [2] = test system: neural stem cells in the subventricular zone; assay: Subcutaneous administration, number of neural stem cells in the subventricular zone; assay type: in vivo
# [3] = Forelimb inhibition test in focal ischemic injury (stroke) model; assay type: in vivo; details: rats with focal ischemic injury; first infusion days 1-7, second infusion days 8-14
# Text: (§1) Adult male Long-Evans rats (250-350 g) were obtained from Charles River Breeding Farms and were adapted to the colony for two weeks prior to any treatment. A week before surgery the rats were given a baseline testing on the behavioral tests.
# (§2) The animals for the stroke study received unilateral devascularization of the sensorimotor cortex. Using Isoflurane anesthesia, the skin was incised and retracted and the overlying fascia were removed from the skull. A skull opening was made at the following coordinates, taking care not to damage the dura: AP +4.0 to −2.0; L 1.5 to 4 (the parasagittal ridge; Kolb et al., 1997). The dura was cut and retracted from the skull opening. A cotton swab soaked in sterile saline was gently rubbed across the exposed pia and the vessels were removed. A hole was then drilled in the contralateral hemisphere to provide an opening for the cannulae attached to the osmotic minipump at AP −0.5; L 1.5. […]
# (§3) Six days later the animals were assessed using the behavioral test. […]
# In normal rats, swimming is accomplished by propulsion from the hind limbs. […] Inhibition of the forelimbs was assessed by filming animals while swimming. […]
# (§4) The animals then received various test factors, and the effects of these factors on the forelimb inhibition test and brain anatomy were assessed. […]
# [4] = Forelimb asymmetry test in focal ischemic injury (stroke) model; assay type: in vivo; details: rats with focal ischemic injury; first infusion days 1-7, second infusion days 8-14
# Text: as §1
# as §2, with “removed.” for “removed. A hole was then drilled in the contralateral hemisphere to provide an opening for the cannulae attached to the osmotic minipump at AP −0.5; L 1.5.”
# as §3
# Forepaw asymmetry of the animals was determined by filming them from below while in an acrylic cylinder 25 cm in diameter, on an acrylic platform. Preference was determined by separately counting the number of times in 5 minutes that an animal reared and placed the left or right forepaw on the surface of the cylinder in a gesture of postural stabilization. […]
# as §4
# neurospheres = assay: Multipotency of neurospheres (neuron, oligodendrocyte, astrocyte derived from each neurosphere); assay type: cell-based; details: neurospheres produced in the factor(s)
# Procedure: The protocols for neural stem cell culture are described in detail in U.S. Pat. No. 5,750,376 or Shingo et al., 2001. Briefly, embryonic neural stem cells were prepared from E14 medial and lateral ganglionic eminences. Adult neural stem cells were prepared from the subventricular zone of adult mice. The tissue was cultured in basal medium containing 20 ng/ml EGF, or other growth factors as indicated in each case, to form neurospheres. The composition of the basal medium is as follows: DMEM/F12 (1:1); glucose (0.6%); glutamine (2 mM); sodium bicarbonate (3 mM); HEPES (5 mM); insulin (25 μg/ml); transferrin (100 μg/ml); progesterone ([…]); putrescine (60 μM); and selenium chloride (30 nM).
# Accordingly, we compared the expandability and multipotency of neurospheres that were produced in EGF alone or EGF plus CNTF. For expandability, pass 1 neurospheres were dissociated and replated at clonal density to generate pass 2 neurospheres, and the number of pass 2 neurospheres that were derived from a single pass 1 sphere was counted. […] Therefore, neural stem cells differentiate to glial cells by default, which can be inhibited by CNTF.
Substance,doublecortin staining / doublecortin positive cells in the brain [1],delivery by subcutaneous administration to modulate the number of neural stem cells in the subventricular zone [2],forepaw inhibition / motor function in the forelimb inhibition test [3],recovery of forelimb asymmetry / motor function in the forelimb asymmetry test [4],"glial cells generated by neurospheres, relative to those produced in EGF plus CNTF (neurospheres) [times]"
"growth hormone: growth hormone, first infusion days 1-7, then CSF (Group 5)",increased doublecortin positive cells,effectively delivered,reversed effect,improvement of motor functions; also recorded: recovered from asymmetrical forelimb usage; also recorded: improved a motor neuron-related function; also recorded: reversed effect,
"IGF-1: IGF-1, a factor said to proliferate neural stem cells",,effectively delivered,,,
"EGF: epidermal growth factor; human recombinant EGF for infusion (NSDSECPLSHDGYCLHDGVCMYIEALDKYACNCVVGYIGERCQYRDLKWWELR; UniProt P01133 971-1023, looked up)",,,,,4
"PACAP: pituitary adenylate cyclase activating polypeptide (HSDGIFTDSYSRYRKQMAVKKYLAAVLGKRYKQRVKNK; ends and bridges not checked; UniProt P18509 132-169, looked up)",,effectively delivered,,,
